In publication PMC10584170, “Machine learning-based phenotypic imaging to characterise the targetable biology of Plasmodium falciparum male gametocytes for the development of transmission-blocking antimalarials” (PLOS Pathogens, 2023):

Tests used:
[1] = system: P. falciparum male gametocytes; test: P. falciparum Dual Gamete Formation Assay (PfDGFA), male readout (exflagellation); assay type: cell-based, Plasmodium falciparum NF54; conditions: for IC50: this study, read-out: Pf DGFA IC50 MALE; for Average inhibition male (%): average of replicates; for % inhibition male (individual replicates) R1: replicate R1; for % inhibition male (individual replicates) R3: replicate R3; for % inhibition male (individual replicates) R4: replicate R4
Method in brief: (§1)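 Male and female gamete formation were quantified by microscopy image analysis following 24 h incubation of mature NF54 gametocytes with compound and activation at 28°C with xanthurenic acid.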

[2] = system: P. falciparum female gametocytes; test: P. falciparum Dual Gamete Formation Assay (PfDGFA), female readout (Pfs25-positive female gametes); assay type: cell-based, Plasmodium falciparum NF54; conditions: for IC50: this study, read-out: Pf DGFA IC50 FEM; for Average inhibition female (%): average of replicates; for % inhibition female (individual replicates) R1: replicate R1; for % inhibition female (individual replicates) R3: replicate R3; for % inhibition female (individual replicates) R4: replicate R4
Method in brief: as §1

[3] = system: HepG2 cells; test: HepG2 cytotoxicity counter-screen; conditions: for Mean TOX: mean of the HepG2 TOX50 values; for DGFA Tox50 HepG2: HepG2 value reported with the DGFA screen
[4] = 2µM, 24h preincubation with gametocytes prior to induction of gametogenesis
[5] = PfDGFA at 2µM, 24h preincubation with gametocytes prior to induction of gametogenesis
[6] = PfDGFA at 2µM, 24h preincubation
[7] = 2µM, 24h preincubation with gametocytes

Row | Structure (SMILES) | Cytotox ratio Pf Male [1] | IC50 [1] | Cytotox ratio Pf Female [2] | IC50 [2] | Mean TOX [3] | further results
1 | C=CCNc1cc(-c2ccccn2)nc(-c2ccccn2)n1 [TC01] | 13.8 | 0.91 µM | 2.6 | 4.89 µM | 12.58 µM | –
2 | c1ccc2[nH]c(CN(Cc3nc4ccccc4[nH]3)Cc3nc4ccccc4[nH]3)nc2c1 [TC03] | 14.8 | 6.75 µM | 10.0 | – | 100.00 µM | DGFA Tox50 HepG2 [3]: 100 µM
3 | FC(F)(F)c1cccc(NC(=S)NN=Cc2ccccn2)c1 [TC06] | 142.9 | 0.7 µM | 142.9 | 0.7 µM | 100.00 µM | DGFA Tox50 HepG2 [3]: 100 µM
4 | O=C(Cc1cccc(O)c1)NCC(Cc1ccc(O)cc1)c1ccccc1 (stereo not drawn) [TC08] | 58.1 | 1.72 µM | 10.0 | – | 100.00 µM | DGFA Tox50 HepG2 [3]: 100 µM
5 | N=C(N)NCCN(Cc1ccccc1)c1ccc(Cl)cc1 [TC09] | 72.7 | 0.67 µM | 7.5 | 6.5 µM | 48.68 µM | –
6 | O=C(NC1CCN(Cc2ccccc2)CC1)c1cc(C(=O)NC2CCN(Cc3ccccc3)CC2)cc(C(=O)NC2CCN(Cc3ccccc3)CC2)c1 [TC20] | 13.0 | 7.71 µM | 10.0 | – | 100.00 µM | DGFA Tox50 HepG2 [3]: 100 µM
7 | CC(C)S(=O)(=O)N1CCN(Cc2ccc3c(c2)nc(NC(=O)c2ccsc2)n3C[C@H](O)c2ccccc2)CC1 [TC25] | 20.7 | 0.41 µM | 0.848 | – | 8.48 µM | –
8 | Oc1cccc(CNCCCN(Cc2ccccc2)c2ccccc2)c1 [TC30] | 13.1 | 1.06 µM | 1.8 | 7.74 µM | 13.84 µM | –
9 | Fc1ccc2[nH]c(-c3ccc(-c4ccc(CNCCN5CCNCC5)cc4)cc3)nc2c1.O=C(O)C(F)(F)F [TC31] | 12.1 | 2.39 µM | 2.9 | – | 28.84 µM | –
10 | COc1cc2c(cc1S(=O)(=O)c1ccc(COc3ccc(C(F)(F)F)cc3)cc1)CNCC2.Cl [TC36] | 12.0 | 1.38 µM | 1.7 | – | 16.60 µM | –
11 | O=C(c1ccc(-c2cnc3[nH]cc(-c4ccc(C(=O)N5CCOCC5)cc4)c3c2)cc1)N1CCOCC1 [TC43] | 65.9 | 0.44 µM | 2.9 | – | 28.99 µM | –
12 | CN1CCC(NCc2ccc(-c3cnc(NCc4ccccc4)nc3)cc2)CC1.O=C(O)C(F)(F)F [TC47] | 11.6 | 0.96 µM | 1.7 | 6.57 µM | 11.10 µM | –
13 | Cc1cccc(Nc2nc(NCCCCN)nc3cc[nH]c(=O)c23)c1.O=C(O)C(F)(F)F [TC51] | 75.4 | 0.38 µM | 2.9 | – | 28.66 µM | –
14 | CCCCNS(=O)(=O)c1ccc(NC(=O)c2cc([N+](=O)[O-])ccc2Cl)cc1 [TC52] | 270.3 | 0.37 µM | 13.2 | 7.56 µM | 100.00 µM | DGFA Tox50 HepG2 [3]: 100 µM
15 | Cc1ccc(C)c(S(=O)(=O)NCC2CCN(Cc3ccc(O)cc3)CC2)c1.O=C(O)C(F)(F)F [TC53] | 54.7 | 1.49 µM | 8.2 | – | 81.55 µM | –
16 | CN1CCN(c2ccc(Nc3c4ccccc4nc4ccccc34)cc2)CC1 [TC57] | 45.2 | 0.59 µM | 3.0 | 8.84 µM | 26.65 µM | –
17 | CCn1c(-c2nonc2N)nc2c(-c3ccccc3)ncc(OCCCNCCCN3CCOCC3)c21.O=C(O)C(F)(F)F [TC62] | 11.8 | 1.37 µM | 2.5 | 6.49 µM | 16.12 µM | –
18 | COc1ccc2c(c1)nc(CNC(=N)N)n2Cc1ccc(Cl)cc1.Cl [TCMDC-142042] | – | – | – | – | – | Average inhibition male (%) [1, 4]: -2.9%; % inhibition male (individual replicates) R1 [1, 4]: -15.5%; % inhibition male (individual replicates) R3 [1, 4]: -14.5%; % inhibition male (individual replicates) R4 [1, 4]: 30.2%; HitlevelM ([1]; 2µM, 24h preincubation, hits selected on >50% inhibition in the male readout across replicates): 0; Activity ([1]; PfDGFA at 2µM, 24h preincubation, hit = >50% inhibition in male or female readout in at least 3 replicates, 0 = no class assigned): 0; Average inhibition female (%) [2, 4]: 8.7%; % inhibition female (individual replicates) R1 [2, 4]: 5.3%; % inhibition female (individual replicates) R3 [2, 4]: -8.2%; % inhibition female (individual replicates) R4 [2, 4]: 2.2%; HitlevelF ([2]; 2µM, 24h preincubation, hits selected on >50% inhibition in the female readout across replicates): 0
19 | Cc1ccc2nc(C)cc(N/N=C/c3ccc([N+](=O)[O-])cc3)c2c1 [TCMDC-142070] | – | – | – | – | – | % inhibition male (individual replicates) R1 [1, 5]: -12.6%; % inhibition male (individual replicates) R3 [1, 5]: -7.9%; % inhibition male (individual replicates) R4 [1, 5]: 12.9%; Average inhibition male (%) [1, 6]: -0.848%; % inhibition female (individual replicates) R1 [2, 5]: 9.6%; % inhibition female (individual replicates) R3 [2, 5]: -4.2%; % inhibition female (individual replicates) R4 [2, 5]: -9.4%; Average inhibition female (%) [2, 6]: 1.3%
20 | CC1(C)N=C(N)N=C(N)N1c1ccc(Cl)c(Cl)c1.Cl [TCMDC-142180] | – | – | – | – | – | % inhibition male (individual replicates) R1 [1, 5]: 8.4%; % inhibition male (individual replicates) R4 [1, 5]: -27.5%; Average inhibition male (%) [1, 6]: 6.9%; % inhibition female (individual replicates) R1 [2, 5]: -5.5%; % inhibition female (individual replicates) R3 [2, 5]: -6.4%; % inhibition female (individual replicates) R4 [2, 5]: 1.4%; Average inhibition female (%) [2, 6]: -4.7%
21 | CCOc1ccc2c(=NN=Cc3ccc(OC)c(OC)c3)cc(C)[nH]c2c1 [TCMDC-142206] | – | – | – | – | – | Average inhibition male (%) [1, 4]: 11.1%; % inhibition male (individual replicates) R1 [1, 4]: 9.5%; % inhibition male (individual replicates) R3 [1, 4]: 6.4%; % inhibition male (individual replicates) R4 [1, 4]: 28.2%; HitlevelM ([1]; 2µM, 24h preincubation, number of replicates with >50% inhibition in the male readout): 0; Average inhibition female (%) [2, 4]: 22.4%; % inhibition female (individual replicates) R1 [2, 4]: 27.0%; % inhibition female (individual replicates) R3 [2, 4]: -3.4%; % inhibition female (individual replicates) R4 [2, 4]: 40.7%; HitlevelF ([2]; 2µM, 24h preincubation, number of replicates with >50% inhibition in the female readout): 0
22 | Cl.Nc1c(I)cc(C(=O)Nc2ccc3nc4c(c(N)c3c2)CCCC4)cc1I [TCMDC-142289] | – | – | – | – | – | Average inhibition male (%) [1, 7]: 92.1%; % inhibition male (individual replicates) R1 [1, 7]: 89.6%; % inhibition male (individual replicates) R4 [1, 7]: 96.1%; Average inhibition female (%) [2, 7]: 49.6%; % inhibition female (individual replicates) R1 [2, 7]: 51.7%; % inhibition female (individual replicates) R3 [2, 7]: 34.7%; % inhibition female (individual replicates) R4 [2, 7]: 48.7%
23 | O=c1c(NCCCN(Cc2ccc(F)cc2)c2ccccn2)c(NCc2ccncc2)c1=O [TCMDC-142310] | – | – | – | – | – | % inhibition male (individual replicates) R1 [1, 5]: -3.0%; % inhibition male (individual replicates) R3 [1, 5]: -19.8%; % inhibition male (individual replicates) R4 [1, 5]: -2.5%; Average inhibition male (%) [1, 6]: -8.8%; % inhibition female (individual replicates) R1 [2, 5]: 6.5%; % inhibition female (individual replicates) R3 [2, 5]: -28.2%; % inhibition female (individual replicates) R4 [2, 5]: -7.1%; Average inhibition female (%) [2, 6]: -7.2%
